Biological target: T1, Vitronectin receptor αVβ3 (Homo sapiens, UniProt P05106+P06756)
T1 construct: expressed in transfected cells; host or cells: 512P5 cells (plasma membrane preparation)
Test: Vitronectin Receptor αVβ3 Binding Assay
Details: read-out: VnR (IC50μM)

T1 sequence (P06756 31-889 limits assumed): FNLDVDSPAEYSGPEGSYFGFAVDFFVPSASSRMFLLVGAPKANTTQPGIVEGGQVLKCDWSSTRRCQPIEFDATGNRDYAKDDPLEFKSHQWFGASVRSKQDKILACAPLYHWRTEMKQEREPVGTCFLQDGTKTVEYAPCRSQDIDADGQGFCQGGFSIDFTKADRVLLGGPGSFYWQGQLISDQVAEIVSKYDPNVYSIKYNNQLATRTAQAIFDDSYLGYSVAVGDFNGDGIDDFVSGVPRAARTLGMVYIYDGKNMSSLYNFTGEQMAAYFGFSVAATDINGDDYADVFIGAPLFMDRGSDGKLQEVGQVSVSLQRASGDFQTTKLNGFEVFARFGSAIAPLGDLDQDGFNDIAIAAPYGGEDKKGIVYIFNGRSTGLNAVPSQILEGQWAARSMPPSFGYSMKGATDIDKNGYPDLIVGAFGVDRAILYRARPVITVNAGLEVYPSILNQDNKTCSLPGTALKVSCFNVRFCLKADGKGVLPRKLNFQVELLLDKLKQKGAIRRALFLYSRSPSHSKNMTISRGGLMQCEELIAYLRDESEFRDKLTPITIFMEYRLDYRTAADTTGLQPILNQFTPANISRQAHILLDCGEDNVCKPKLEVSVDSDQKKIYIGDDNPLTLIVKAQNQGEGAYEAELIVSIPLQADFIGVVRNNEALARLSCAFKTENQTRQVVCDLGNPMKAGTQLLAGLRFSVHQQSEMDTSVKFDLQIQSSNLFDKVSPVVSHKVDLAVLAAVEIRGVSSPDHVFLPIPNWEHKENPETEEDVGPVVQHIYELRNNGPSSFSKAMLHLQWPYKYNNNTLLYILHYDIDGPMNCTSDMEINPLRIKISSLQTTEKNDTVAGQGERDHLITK
T1 sequence (P06756 891-1048 partner limits assumed): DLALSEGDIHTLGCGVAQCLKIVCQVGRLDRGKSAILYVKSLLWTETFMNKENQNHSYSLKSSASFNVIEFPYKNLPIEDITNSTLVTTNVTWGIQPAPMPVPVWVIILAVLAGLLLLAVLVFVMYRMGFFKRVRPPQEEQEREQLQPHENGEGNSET
T1 sequence (P05106 27-788): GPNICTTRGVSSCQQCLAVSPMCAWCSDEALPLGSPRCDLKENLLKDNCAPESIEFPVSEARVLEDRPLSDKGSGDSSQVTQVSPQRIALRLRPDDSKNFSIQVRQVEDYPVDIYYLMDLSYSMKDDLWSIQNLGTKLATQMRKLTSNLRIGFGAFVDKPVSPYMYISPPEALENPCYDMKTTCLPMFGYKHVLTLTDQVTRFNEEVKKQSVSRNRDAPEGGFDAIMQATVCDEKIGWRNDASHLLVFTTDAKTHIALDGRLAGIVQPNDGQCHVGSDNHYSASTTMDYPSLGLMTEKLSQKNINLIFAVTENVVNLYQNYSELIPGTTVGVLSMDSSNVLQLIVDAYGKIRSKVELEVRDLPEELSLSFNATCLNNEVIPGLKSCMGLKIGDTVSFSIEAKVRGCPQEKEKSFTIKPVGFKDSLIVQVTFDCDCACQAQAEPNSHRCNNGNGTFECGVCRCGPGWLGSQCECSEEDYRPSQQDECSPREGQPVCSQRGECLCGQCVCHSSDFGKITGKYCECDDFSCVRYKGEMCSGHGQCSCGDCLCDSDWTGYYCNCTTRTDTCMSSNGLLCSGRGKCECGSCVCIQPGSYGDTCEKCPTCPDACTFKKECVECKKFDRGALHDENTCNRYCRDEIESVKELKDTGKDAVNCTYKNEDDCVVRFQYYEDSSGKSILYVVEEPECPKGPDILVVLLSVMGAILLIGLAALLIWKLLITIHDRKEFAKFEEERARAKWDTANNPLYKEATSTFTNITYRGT

Compound: O=C(N[C@@H](CNC(=O)c1ccc(OCCNC2=NCCN2)cc1O)C(=O)O)OCc1ccccc1 [Example 96, (2S)-2-{[(benzyloxy)carbonyl]amino}-3-({4-[2-(4,5-dihydro-1H-imidazol-2-ylamino)ethoxy]-2-hydroxybenzoyl}amino)propanoic acid]
- IC50: 0.119 µM

Compound: COC(=O)N[C@@H](CNC(=O)c1ccc(OCCNC2=NCCN2)cc1O)C(=O)O [Example 97, (2S)-3-({4-[2-(4,5-dihydro-1H-imidazol-2-ylamino)ethoxy]-2-hydroxybenzoyl}-amino)-2-[(methoxycarbonyl)amino]propanoic acid]
- IC50: 0.77 µM

Compound: CCOC(=O)N[C@@H](CNC(=O)c1ccc(OCCNC2=NCCN2)cc1O)C(=O)O [Example 98, (2S)-3-({4-[2-(4,5-dihydro-1H-imidazol-2-ylamino)ethoxy]-2-hydroxybenzoyl}-amino)-2-[(ethoxycarbonyl)amino]propanoic acid]
- IC50: 0.15 µM

Compound: CCCOC(=O)N[C@@H](CNC(=O)c1ccc(OCCNC2=NCCN2)cc1O)C(=O)O [Example 99, (2S)-3-({4-[2-(4,5-dihydro-1H-imidazol-2-ylamino)ethoxy]-2-hydroxybenzoyl}-amino)-2-[(propoxycarbonyl)amino]propanoic acid]
- IC50: 0.088 µM

Compound: CC(C)OC(=O)N[C@@H](CNC(=O)c1ccc(OCCNC2=NCCN2)cc1O)C(=O)O [Example 100, (2S)-3-({4-[2-(4,5-dihydro-1H-imidazol-2-ylamino)ethoxy]-2-hydroxybenzoyl}-amino)-2-[(isopropoxycarbonyl)amino]propanoic acid]
- IC50: 0.079 µM

Compound: C=CCOC(=O)N[C@@H](CNC(=O)c1ccc(OCCNC2=NCCN2)cc1O)C(=O)O [Example 101, (2S)-2-{[(allyloxy)carbonyl]amino}-3-({4-[2-(4,5-dihydro-1H-imidazol-2-ylamino)-ethoxy]-2-hydroxybenzoyl}amino)propanoic acid]
- IC50: 0.094 µM

Compound: C=CCCOC(=O)N[C@@H](CNC(=O)c1ccc(OCCNC2=NCCN2)cc1O)C(=O)O [Example 102, (2S)-2-{[(but-3-enyloxy)carbonyl]amino}-3-({4-[2-(4,5-dihydro-1H-imidazol-2-ylamino)ethoxy]-2-hydroxybenzoyl}amino)propanoic acid]
- IC50: 0.069 µM

Compound: C#CCOC(=O)N[C@@H](CNC(=O)c1ccc(OCCNC2=NCCN2)cc1O)C(=O)O [Example 103, (2S)-3-({4-[2-(4,5-dihydro-1H-imidazol-2-ylamino)ethoxy]-2-hydroxybenzoyl}-amino)-2-{[(prop-2-ynyloxy)carbonyl]amino}propanoic acid]
- IC50: 0.21 µM

Compound: CCCCCCOC(=O)N[C@@H](CNC(=O)c1ccc(OCCNC2=NCCN2)cc1O)C(=O)O [Example 104, (2S)-3-({4-[2-(4,5-dihydro-1H-imidazol-2-ylamino)ethoxy]-2-hydroxybenzoyl}-amino)-2-{[(hexyloxy)carbonyl]amino}propanoic acid]
- IC50: 0.086 µM

Compound: CCCCCCCCOC(=O)N[C@@H](CNC(=O)c1ccc(OCCNC2=NCCN2)cc1O)C(=O)O [Example 105, (2S)-3-({4-[2-(4,5-dihydro-1H-imidazol-2-ylamino)ethoxy]-2-hydroxybenzoyl}-amino)-2-{[(octyloxy)carbonyl]amino}propanoic acid]
- IC50: 0.135 µM

Compound: CCCCOC(=O)N[C@@H](CNC(=O)c1ccc(OCCNC2=NCCN2)cc1O)C(=O)O [Example 106, (2S)-2-[(butoxycarbonyl)amino]-3-({4-[2-(4,5-dihydro-1H-imidazol-2-ylamino)ethoxy]-2-hydroxybenzoyl}amino)propanoic acid]
- IC50: 0.114 µM

Compound: CC(C)COC(=O)N[C@@H](CNC(=O)c1ccc(OCCNC2=NCCN2)cc1O)C(=O)O [Example 107, (2S)-3-({4-[2-(4,5-dihydro-1H-imidazol-2-ylamino)ethoxy]-2-hydroxybenzoyl}-amino)-2-[(isobutoxycarbonyl)amino]propanoic acid]
- IC50: 0.13 µM

Compound: CCCCNC(=O)N[C@@H](CNC(=O)c1ccc(OCCNC2=NCCN2)cc1O)C(=O)O [Example 108, (2S)-2-{[(butylamino)carbonyl]amino}-3-({4-[2-(4,5-dihydro-1H-imidazol-2-ylamino)ethoxy]-2-hydroxybenzoyl}amino)propanoic acid]
- IC50: 1.1 µM

Compound: CCCCCCNC(=O)N[C@@H](CNC(=O)c1ccc(OCCNC2=NCCN2)cc1O)C(=O)O [Example 109, (2S)-3-({4-[2-(4,5-dihydro-1H-imidazol-2-ylamino)ethoxy]-2-hydroxybenzoyl}-amino)-2-{[(hexylamino)carbonyl]amino}propanoic acid]
- IC50: 0.251 µM

Compound: CCCCCCCCNC(=O)N[C@@H](CNC(=O)c1ccc(OCCNC2=NCCN2)cc1O)C(=O)O [Example 110, (2S)-3-({4-[2-(4,5-dihydro-1H-imidazol-2-ylamino)ethoxy]-2-hydroxybenzoyl}-amino)-2-{[(octylamino)carbonyl]amino}propanoic acid]
- IC50: 0.544 µM

Compound: C=CCNC(=O)N[C@@H](CNC(=O)c1ccc(OCCNC2=NCCN2)cc1O)C(=O)O [Example 111, (2S)-2-{[(allylamino)carbonyl]amino}-3-({4-[2-(4,5-dihydro-1H-imidazol-2-ylamino)ethoxy]-2-hydroxybenzoyl}amino)propanoic acid]
- IC50: 0.856 µM

Compound: O=C(NC1CCCCC1)N[C@@H](CNC(=O)c1ccc(OCCNC2=NCCN2)cc1O)C(=O)O [Example 112, (2S)-2-{[(cyclohexylamino)carbonyl]amino}-3-({4-[2-(4,5-dihydro-1H-imidazol-2-ylamino)ethoxy]-2-hydroxybenzoyl}amino)propanoic acid]
- IC50: 1.09 µM

Compound: O=C(NCc1ccccc1)N[C@@H](CNC(=O)c1ccc(OCCNC2=NCCN2)cc1O)C(=O)O [Example 113, (2S)-2-{[(benzylamino)carbonyl]amino}-3-({^4-[2-(4,5-dihydro-1H-imidazol-2-ylamino)ethoxy]-2-hydroxybenzoyl}amino)propanoic acid]
- IC50: 3.03 µM

Compound: COc1ccccc1NC(=O)N[C@@H](CNC(=O)c1ccc(OCCNC2=NCCN2)cc1O)C(=O)O [Example 115, (2S)-3-({4-[2-(4,5-dihydro-1H-imidazol-2-ylamino)ethoxy]-2-hydroxybenzoyl}-amino)-2-{[(2-methoxyanilino)carbonyl]amino}propanoic acid]
- IC50: 0.258 µM

Compound: O=C(Nc1ccccc1-c1ccccc1)N[C@@H](CNC(=O)c1ccc(OCCNC2=NCCN2)cc1O)C(=O)O [Example 116, (2S)-2-{[([1,1′-biphenyl]-2-ylamino)carbonyl]amino}-3-({4-[2-(4,5-dihydro-1H-imidazol-2-ylamino)ethoxy]-2-hydroxybenzoyl}amino)propanoic acid]
- IC50: 2.76 µM

Compound: O=C(NCCc1ccccc1)N[C@@H](CNC(=O)c1ccc(OCCNC2=NCCN2)cc1O)C(=O)O [Example 117, (2S)-3-({4-[2-(4,5-dihydro-1H-imidazol-2-ylamino)ethoxy]-2-hydroxybenzoyl}-amino)-2-({[(2-phenylethyl)amino]carbonyl}amino)propanoic acid]
- IC50: 1.52 µM

Compound: CC(C)C(=O)N[C@@H](CNC(=O)c1ccc(OCCNC2=NCCN2)cc1O)C(=O)O [Example 118, (2S)-3-({4-[2-(4,5-dihydro-1H-imidazol-2-ylamino)ethoxy]-2-hydroxybenzoyl}-amino)-2-(isobutyrylamino)propanoic acid]
- IC50: > 1 µM

Compound: CCCC(=O)N[C@@H](CNC(=O)c1ccc(OCCNC2=NCCN2)cc1O)C(=O)O [Example 119, (2S)-2-(butyrylamino)-3-({4-[2-(4,5-dihydro-1H-imidazol-2-ylamino)ethoxy]-2-hydroxybenzoyl}amino)propanoic acid]
- IC50: > 1 µM

Compound: CCCCCC(=O)N[C@@H](CNC(=O)c1ccc(OCCNC2=NCCN2)cc1O)C(=O)O [Example 120, (2S)-3-({4-[2-(4,5-dihydro-1H-imidazol-2-ylamino)ethoxy]-2-hydroxybenzoyl}-amino)-2-(hexanoylamino)propanoic acid]
- IC50: > 1 µM

Compound: CCCCC(=O)N[C@@H](CNC(=O)c1ccc(OCCNC2=NCCN2)cc1O)C(=O)O [Example 121, (2S)-3-({4-[2-(4,5-dihydro-1H-imidazol-2-ylamino)ethoxy]-2-hydroxybenzoyl}-amino)-2-(pentanoylamino)propanoic acid]
- IC50: > 1 µM

Compound: CC(C)(C)CC(=O)N[C@@H](CNC(=O)c1ccc(OCCNC2=NCCN2)cc1O)C(=O)O [Example 122, (2S)-3-({4-[2-(4,5-dihydro-1H-imidazol-2-ylamino)ethoxy]-2-hydroxybenzoyl}-amino)-2-[(3,3-dimethylbutanoyl)amino]propanoic acid]
- IC50: > 1 µM

Compound: CC1(C)C(C(=O)N[C@@H](CNC(=O)c2ccc(OCCNC3=NCCN3)cc2O)C(=O)O)C1(C)C [Example 123, (2S)-3-({4-[2-(4,5-dihydro-1H-imidazol-2-ylamino)ethoxy]-2-hydroxybenzoyl}-amino)-2-{[(2,2,3,3-tetramethylcyclopropyl)carbonyl]amino}propanoic acid]
- IC50: > 1 µM

Compound: O=C(CC12CC3CC(CC(C3)C1)C2)N[C@@H](CNC(=O)c1ccc(OCCNC2=NCCN2)cc1O)C(=O)O [Example 124, (2S)-2-{[2-(1-adamantyl)acetyl]amino}-3-({4-[2-(4,5-dihydro-1H-imidazol-2-ylamino)ethoxy]-2-hydroxybenzoyl}amino)propanoic acid]
- IC50: 0.734 µM

Compound: C#CCCC(=O)N[C@@H](CNC(=O)c1ccc(OCCNC2=NCCN2)cc1O)C(=O)O [Example 125, (2S)-3-({4-[2-(4,5-dihydro-1H-imidazol-2-ylamino)ethoxy]-2-hydroxybenzoyl}-amino)-2-(pent-4-ynoylamino)propanoic acid]
- IC50: > 1 µM

Compound: O=C(NC[C@H](NC(=O)C1CCCCC1)C(=O)O)c1ccc(OCCNC2=NCCN2)cc1O [Example 126, (2S)-2-[(cyclohexylcarbonyl)amino]-3-({4-[2-(4,5-dihydro-1H-imidazol-2-ylamino)ethoxy]-2-hydroxybenzoyl}amino)propanoic acid]
- IC50: > 1 µM

Compound: O=C(Cc1ccccc1)N[C@@H](CNC(=O)c1ccc(OCCNC2=NCCN2)cc1O)C(=O)O [Example 127, (2S)-3-({4-[2-(4,5-dihydro-1H-imidazol-2-ylamino)ethoxy]-2-hydroxybenzoyl}-amino)-2-[(2-phenylacetyl)amino]propanoic acid]
- IC50: 0.955 µM

— patent US20030186967A1, “Acylresorcinol derivatives are selective vitronectin receptor inhibitors” (American Home Products Corporation, priority 1998, published 2003)
